The values that follow come from patent publication US12637478B2, “Compound, preparation method thereof, and antibiotic composition comprising same” (priority 2020, dated 2026).

One test concerns S. aureus^VR. Nature of the test: MIC by broth microdilution (aerobic pathogens), test strain 4. Format: cell-based, Vancomycin resistant Staphylococcus aureus. Particulars: Staphylococcus aureus. How it is done:
(§1) The antibacterial activity of the compounds of Examples 1 to 48 of the present invention against aerobic pathogens were evaluated by measuring the minimum concentration of the antibiotic capable of inhibiting bacterial growth by 90% compared to the growth of the non-drug treated control group. MIC was measured by the broth microdilution method based on CLSI standards [Reference: Clinical and Laboratory Standards Institute Document. (2000) Methods for Dilution Antimicrobial Susceptibility Test for Bacteria that Grow Aerobically-Fifth Edition: M7-A5. CLSI, Villanova, PA].
(§2) All 13 strains such as methicillin susceptible Staphylococcus aureus (MSSA), methicillin resistant Staphylococcus aureus (MRSA), Vancomycin resistant Staphylococcus aureus (VRSA), Staphylococcus epidermidis, methicillin resistant Staphylococcus epidermidis, Enterococcus faecalis, Vancomycin resistant Enterococcus faecalis, Enterococcus faecium, Vancomycin resistant Enterococcus faecium were used.

Another test has as its system S. aureus^MR. Put plainly: MIC by broth microdilution (aerobic pathogens), test strain 3. Format: cell-based, Methicillin resistant Staphylococcus aureus. Particulars: Staphylococcus aureus. Here is the method: as §1, §2
A further test relates to E. faecalis. Nature of the test: MIC by broth microdilution (aerobic pathogens), test strain 7. In kind it is cell-based. Conditions: Enterococcus faecalis. How it is done: as §1, §2
The subject of another test is E. faecium. Put plainly: MIC by broth microdilution (aerobic pathogens), test strain 10. In kind it is cell-based. Conditions: Enterococcus faecium. How it is done:
as §1, §2

The next test relates to S. epidermis. Put plainly: MIC by broth microdilution (aerobic pathogens), test strain 5. Conditions: Staphylococcus epidermidis. Format: cell-based. How it is done: as §1, §2
In test [1] the test system is S. aureus^MS. Put plainly: MIC by broth microdilution (aerobic pathogens), test strain 2. In kind it is cell-based. Particulars: Staphylococcus aureus. How it is done: as §1, §2
For another test, the system named is E. faecium^LinR. Nature of the test: MIC by broth microdilution (aerobic pathogens), test strain 12. Format: cell-based, Linezolid resistant Enterococcus faecium. Particulars: Enterococcus faecium. How it is done: as §1, §2
Test [2] deals with S. aureus^MS. Nature of the test: MIC by broth microdilution (aerobic pathogens), test strain 1. Format: cell-based. Conditions: Staphylococcus aureus. Here is the method: as §1, §2
A further test relates to E. faecalis^LinR. Put plainly: MIC by broth microdilution (aerobic pathogens), test strain 9. Format: cell-based, Linezolid resistant Enterococcus faecalis. Conditions: Enterococcus faecalis. Here is the method: as §1, §2
A further test relates to S. epidermis^MR. Nature of the test: MIC by broth microdilution (aerobic pathogens), test strain 6. Format: cell-based, Methicillin resistant Staphylococcus epidermidis. Particulars: Staphylococcus epidermidis. How it is done:
as §1, §2

In the next test the test system is E. faecalis^VanA. Nature of the test: MIC by broth microdilution (aerobic pathogens), test strain 8. Particulars: Enterococcus faecalis. Format: cell-based, Vancomycin resistant Enterococcus faecalis. How it is done: as §1, §2
The subject of a further test is E. faecium^VRE. Put plainly: MIC by broth microdilution (aerobic pathogens), test strain 11. Format: cell-based, Vancomycin resistant Enterococcus faecium. Particulars: Enterococcus faecium. How it is done:
as §1, §2

Another test deals with C. difficile 161. Nature of the test: MIC by agar dilution against Clostridioides difficile, test strain 16. In kind it is cell-based.
The next test deals with C. difficile 152. Nature of the test: MIC by agar dilution against Clostridioides difficile, test strain 14. In kind it is cell-based.
A further test concerns C. difficile 9689. Put plainly: MIC by agar dilution against Clostridioides difficile, test strain 13. Format: cell-based.
In a further test the test system is C. difficile 159. Put plainly: MIC by agar dilution against Clostridioides difficile, test strain 15. In kind it is cell-based.
The next test concerns C. difficile 174. Nature of the test: MIC by agar dilution against Clostridioides difficile, test strain 18. In kind it is cell-based.
The subject of a further test is C. difficile 181. Nature of the test: MIC by agar dilution against Clostridioides difficile, test strain 19. Format: cell-based. Particulars: test strain 19, C. difficile 181, anaerobic, agar dilution, read-out: MIC.
The next test has as its system C. difficile 173. Put plainly: MIC by agar dilution against Clostridioides difficile, test strain 17. Format: cell-based. Particulars: test strain 17, C. difficile 173, anaerobic, agar dilution, read-out: MIC.
[3] abbreviates: test strain 4, S. aureus^VR (vancomycin resistant), read-out: MIC.
[4] abbreviates: test strain 3, S. aureus^MR (methicillin resistant), read-out: MIC.
[5] abbreviates: test strain 7, E. faecalis, read-out: MIC.
The mark [6] stands for this setting: test strain 10, E. faecium, read-out: MIC.
Setting [7] is: test strain 5, S. epidermis, read-out: MIC.
Where [8] appears, read: test strain 2, S. aureus^MS, read-out: MIC.
The mark [9] stands for this setting: test strain 12, E. faecium^LinR (linezolid resistant), read-out: MIC.
The mark [10] stands for this setting: test strain 1, S. aureus^MS, read-out: MIC.
Where [11] appears, read: test strain 9, E. faecalis^LinR (linezolid resistant), read-out: MIC.
The mark [12] stands for this setting: test strain 6, S. epidermis^MR (methicillin resistant), read-out: MIC.
[13] abbreviates: test strain 8, E. faecalis^VanA (vancomycin resistant), read-out: MIC.
Setting [14] is: test strain 11, E. faecium^VRE (vancomycin resistant), read-out: MIC.

Values after ≈ are worked out from the molar mass of the structure shown. Read-outs that look alike come from different tables or passages of the source. Bounds are passed on as bounds.

Consider `C/C=C(\NC(=O)c1csc(-c2csc(-c3ccc4c(n3)-c3csc(n3)[C@H]([C@@H](C)O)NC(=O)c3csc(n3)[C@H](C(C)C)NC(=O)c3csc(n3)/C(=C/C)NC(=O)[C@H]([C@@H](C)O)NC(=O)c3csc-4n3)n2)n1)C(=O)NCCN1CCN(C(C)C)CC1` [Compound 47], for which the MIC in the test with S. aureus^VR (setting [3]) turned out to be 1 µg/mL (≈ 0.806 µM); in the test on S. aureus^MR (setting [4]), 1 µg/mL (≈ 0.806 µM); in the test with E. faecalis (setting [5]), 0.5 µg/mL (≈ 0.403 µM); with E. faecium (setting [6]), 0.5 µg/mL (≈ 0.403 µM); with S. epidermis (setting [7]), 0.5 µg/mL (≈ 0.403 µM); in the test on S. aureus^MS [1] (setting [8]) it was 0.5 µg/mL (≈ 0.403 µM). Further, the MIC with E. faecium^LinR (setting [9]) stood at 1 µg/mL (≈ 0.806 µM); with S. aureus^MS [2] (setting [10]), 0.5 µg/mL (≈ 0.403 µM); in the test with E. faecalis^LinR (setting [11]), 1 µg/mL (≈ 0.806 µM); in the test with S. epidermis^MR (setting [12]), 0.5 µg/mL (≈ 0.403 µM); in the test with E. faecalis^VanA (setting [13]) it was 0.5 µg/mL (≈ 0.403 µM); in the test on E. faecium^VRE (setting [14]), 1 µg/mL (≈ 0.806 µM).
Take `C/C=C(\NC(=O)c1csc(-c2csc(-c3ccc4c(n3)-c3csc(n3)[C@H]([C@@H](C)O)NC(=O)c3csc(n3)[C@H](C(C)C)NC(=O)c3csc(n3)/C(=C/C)NC(=O)[C@H]([C@@H](C)O)NC(=O)c3csc-4n3)n2)n1)C(=O)NCCCN1C(=O)CNC1=O` [Compound 40]: the MIC against S. aureus^VR worked out at 0.5 µg/mL (≈ 0.408 µM); against S. aureus^MR it was 1 µg/mL (≈ 0.815 µM); in the test on C. difficile 161 (161), 0.5 µg/mL (≈ 0.408 µM); against E. faecalis, 0.25 µg/mL (≈ 0.204 µM); in the test with E. faecium, 0.5 µg/mL (≈ 0.408 µM); against S. epidermis, 0.5 µg/mL (≈ 0.408 µM). The MIC against S. aureus^MS [1] was 0.5 µg/mL (≈ 0.408 µM); against C. difficile 152 (152) it was 0.5 µg/mL (≈ 0.408 µM); in the test with E. faecium^LinR it was 1 µg/mL (≈ 0.815 µM); against C. difficile 9689 (9689), 1 µg/mL (≈ 0.815 µM); in the test on S. aureus^MS [2], 0.5 µg/mL (≈ 0.408 µM); against C. difficile 159 (159), 1 µg/mL (≈ 0.815 µM). For the same compound, the MIC was 0.5 µg/mL (≈ 0.408 µM) with E. faecalis^LinR; 0.25 µg/mL (≈ 0.204 µM) in the test with S. epidermis^MR; 0.5 µg/mL (≈ 0.408 µM) against E. faecalis^VanA; 1 µg/mL (≈ 0.815 µM) with E. faecium^VRE (VRE); 0.5 µg/mL (≈ 0.408 µM) against C. difficile 174 (174).
In the case of `CC(=O)NC[C@H]1CN(c2ccc(N3CCOCC3)c(F)c2)C(=O)O1` [Lin, Linezolid, reference compound], the MIC is 8 µg/mL (≈ 23.7 µM) in the test on S. aureus^VR (setting [3]); 4 µg/mL (≈ 11.9 µM) in the test with S. aureus^MR (setting [4]); 2 µg/mL (≈ 5.93 µM) in the test on E. faecalis (setting [5]); 4 µg/mL (≈ 11.9 µM) with E. faecium (setting [6]); 1 µg/mL (≈ 2.96 µM) in the test with S. epidermis (setting [7]); 1 µg/mL (≈ 2.96 µM) in the test on S. aureus^MS [1] (setting [8]). The MIC was found to be 32 µg/mL (≈ 94.9 µM) with E. faecium^LinR (setting [9]); 2 µg/mL (≈ 5.93 µM) in the test with S. aureus^MS [2] (setting [10]); 64 µg/mL (≈ 190 µM) in the test with E. faecalis^LinR (setting [11]); 1 µg/mL (≈ 2.96 µM) in the test on S. epidermis^MR (setting [12]); 2 µg/mL (≈ 5.93 µM) in the test with E. faecalis^VanA (setting [13]); 2 µg/mL (≈ 5.93 µM) in the test with E. faecium^VRE (setting [14]).
As for `CN[C@H](CC(C)C)C(=O)N[C@H]1C(=O)N[C@@H](CC(N)=O)C(=O)N[C@H]2C(=O)N[C@H]3C(=O)N[C@H](C(=O)N[C@H](C(=O)O)c4cc(O)cc(O)c4-c4cc3ccc4O)[C@H](O)c3ccc(c(Cl)c3)Oc3cc2cc(c3O[C@@H]2O[C@H](CO)[C@@H](O)[C@H](O)[C@H]2O[C@H]2C[C@](C)(N)[C@H](O)[C@H](C)O2)Oc2ccc(cc2Cl)[C@H]1O` [Van, Vancomycin, reference compound], the MIC against S. aureus^VR is more than 128 µg/mL; with S. aureus^MR it was 0.5 µg/mL (≈ 0.345 µM); in the test on C. difficile 161 (test strain 16, C. difficile 161, anaerobic, agar dilution, read-out: MIC), 1 µg/mL (≈ 0.69 µM); with E. faecalis it was 1 µg/mL (≈ 0.69 µM); in the test with E. faecium, 0.5 µg/mL (≈ 0.345 µM); against S. epidermis, 1 µg/mL (≈ 0.69 µM). Also, the minimum inhibitory concentration (MIC) was found to be 0.25 µg/mL (≈ 0.173 µM) in the test with S. aureus^MS [1]; 0.5 µg/mL (≈ 0.345 µM) with C. difficile 181; 0.5 µg/mL (≈ 0.345 µM) in the test with C. difficile 173; 1 µg/mL (≈ 0.69 µM) in the test with C. difficile 152 (test strain 14, C. difficile 152, anaerobic, agar dilution, read-out: MIC); 0.5 µg/mL (≈ 0.345 µM) against E. faecium^LinR; 2 µg/mL (≈ 1.38 µM) in the test with C. difficile 9689 (test strain 13, C. difficile 9689, anaerobic, agar dilution, read-out: MIC). For the same compound, the MIC with S. aureus^MS [2] is 0.5 µg/mL (≈ 0.345 µM); in the test on C. difficile 159 (test strain 15, C. difficile 159, anaerobic, agar dilution, read-out: MIC), 2 µg/mL (≈ 1.38 µM); in the test on E. faecalis^LinR, 1 µg/mL (≈ 0.69 µM); in the test on S. epidermis^MR it was 0.5 µg/mL (≈ 0.345 µM); in the test with E. faecalis^VanA, more than 128 µg/mL; against E. faecium^VRE (VRE), more than 128 µg/mL. Also, the MIC with C. difficile 174 (test strain 18, C. difficile 174, anaerobic, agar dilution, read-out: MIC) was 0.5 µg/mL (≈ 0.345 µM).
